Legend:
G. mellonella larvae = experiment: Insecticidal activity by injection into larvae; type: in vivo, Galleria mellonella; conditions: for Insecticidal effect on larvae (in words): 50 ng peptide injected, 3 cohorts of 10 larvae, survival monitored for 5 days
Experimental: Insecticidal activity was determined using fourth and fifth instar G. mellonella larvae (L4/L5) obtained from Fauna Topics Zoobedarf Zucht und Handels GmbH (Marbach am Neckar, Germany). Because spider venom is injected via chelicerae, we opted for an injection-based assay to reflect the natural process of envenomation as described earlier. The peptides were dissolved in a 1:1 mixture of DMSO and water to a final concentration of 10 mmol/L. We injected 50 ng of each peptide into the pseudopodium using Omnican-F, 0.30 × 12 mm/G 30 × 1/2”, a 1 mL syringe adjusted to a WPI manual microsyringe injector setup. Injections with water, DMSO/water (1:1) and ethanol (90%) were used as controls, alongside untreated specimens. Insecticidal activity screenings were performed in cohorts of 10 larvae with 3 replicates (30 specimens per treatment or control). […] Survival was monitored every 24 h for 5 days. Mortality was calculated based on the ratio of dead to injected specimens.

[1] = system: Listeria monocytogenes DSM 20600; experiment: Antibacterial growth assay (OD600); conditions: OD600, medium = 100, MH II broth, 37 °C, peptide 200 µM mixed 50 µL + 50 µL with bacteria, Figure 7: 48 h; for Bacterial growth relative to medium, L. monocytogenes, replicate 1: replicate column 1; for Bacterial growth relative to medium, L. monocytogenes, replicate 2: replicate column 2; for Bacterial growth relative to medium, L. monocytogenes, replicate 3: replicate column 3
Experimental: (§1) Cryo-conserved cultures of selected bacterial strains (Table 4) were transferred to Tryptic Soy Agar (TSA) plates (Carl Roth) with a sterile inoculation loop, sealed with Parafilm (BEMIS, Neenah, WI, USA), and incubated for 1–2 days at 37 °C depending on growth. Single colonies were picked and transferred into 2–3 mL of the Mueller–Hinton II (MH II) broth (BD, Heidelberg, Germany). The bacteria were cultivated overnight, subcultured on fresh medium and grown for 3–4 h before testing at 37 °C, with shaking at 180 rpm. We measured the optical density at 600 nm (OD600) of 1 mL of the bacterial suspensions in polystyrene cuvettes (SARSTED, Nümbrecht, Germany) using an Ultrospec 10 spectrophotometer (Biochrome, Cambridge, UK). We then diluted them with the MH II medium to the preferred OD600 (Table 2). The peptides were dissolved in DMSO to generate 10 mmol/L stocks and diluted with the MH II medium to 200 µM before the assay. We used 10 µg/mL (~40 µg/mL for S. epidermidis) gentamicin and colistin (Sigma-Aldrich, Taufkirchen, Germany), DMSO and the medium only as controls. The bacteria were transferred to 96-multiwell plates with a final volume of 100 µL per well (50 µL bacterial suspension, and 50 µL test peptide). The OD600 was measured at 0, 24 and 48 h using a BioTek Eon microplate reader followed by analysis with Gen5 v2.09.

A/Hamburg/05/2009 (H1N1) = type: cell-based, influenza virus
[2] = system: Escherichia coli BL21(DE3); experiment: Antibacterial growth assay (OD600); conditions: OD600, medium = 100, MH II broth, 37 °C, peptide 200 µM mixed 50 µL + 50 µL with bacteria, Figure 7: 48 h; for Bacterial growth relative to medium, E. coli, replicate 1: replicate column 1; for Bacterial growth relative to medium, E. coli, replicate 2: replicate column 2; for Bacterial growth relative to medium, E. coli, replicate 3: replicate column 3
[3] = system: Staphylococcus epidermidis DSM 28319; experiment: Antibacterial growth assay (OD600); conditions: for Bacterial growth relative to medium, S. epidermidis, replicate 1 / Bacterial growth relative to medium, S. epidermidis, replicate 2 / Bacterial growth relative to medium, S. epidermidis, replicate 3: OD600, medium = 100, MH II broth, 37 °C, peptide 200 µM mixed 50 µL + 50 µL with bacteria, Figure 7: 48 h; for Bacterial growth relative to medium, S. epidermidis, replicate 1: replicate column 1; for Bacterial growth relative to medium, S. epidermidis, replicate 2: replicate column 2; for Bacterial growth relative to medium, S. epidermidis, replicate 3: replicate column 3; for Antibacterial activity (in words): S. epidermidis DSM 28319, growth after 48 h
Experimental: as §1

A/Hessen/1/2003 (H3N2) = type: cell-based, influenza virus; conditions: for Viability of infected cells relative to aprotinin, Replicate 4: replicate 4 (additional internal control)
[4] = system: Pseudomonas aeruginosa DSM 50071; experiment: Antibacterial growth assay (OD600); conditions: OD600, medium = 100, MH II broth, 37 °C, peptide 200 µM mixed 50 µL + 50 µL with bacteria, Figure 7: 48 h; for Bacterial growth relative to medium, P. aeruginosa (50071), replicate 1: replicate column 1; for Bacterial growth relative to medium, P. aeruginosa (50071), replicate 2: replicate column 2; for Bacterial growth relative to medium, P. aeruginosa (50071), replicate 3: replicate column 3
Experimental: as §1

[5] = system: Pseudomonas aeruginosa DSM 1117; experiment: Antibacterial growth assay (OD600); conditions: OD600, medium = 100, MH II broth, 37 °C, peptide 200 µM mixed 50 µL + 50 µL with bacteria, Figure 7: 48 h; for Bacterial growth relative to medium, P. aeruginosa (1117), replicate 1: replicate column 1; for Bacterial growth relative to medium, P. aeruginosa (1117), replicate 2: replicate column 2; for Bacterial growth relative to medium, P. aeruginosa (1117), replicate 3: replicate column 3
[6] = system: panel of seven bacterial strains; experiment: Antibacterial growth assay (OD600), statements on the whole panel; type: cell-based; conditions: growth after 48 h
[7] = system: B/Malaysia/2506/2004 (B-Mal); type: cell-based, influenza virus
[8] = system: Micrococcus luteus DSM 20030; experiment: Antibacterial growth assay (OD600); conditions: for Bacterial growth relative to medium, M. luteus, replicate 1 / Bacterial growth relative to medium, M. luteus, replicate 2 / Bacterial growth relative to medium, M. luteus, replicate 3: OD600, medium = 100, MH II broth, 37 °C, peptide 200 µM mixed 50 µL + 50 µL with bacteria, Figure 7: 48 h; for Bacterial growth relative to medium, M. luteus, replicate 1: replicate column 1; for Bacterial growth relative to medium, M. luteus, replicate 2: replicate column 2; for Bacterial growth relative to medium, M. luteus, replicate 3: replicate column 3
[9] = system: Staphylococcus aureus DSM 2569; experiment: Antibacterial growth assay (OD600); conditions: for Bacterial growth relative to medium, S. aureus, replicate 1 / Bacterial growth relative to medium, S. aureus, replicate 2 / Bacterial growth relative to medium, S. aureus, replicate 3: OD600, medium = 100, MH II broth, 37 °C, peptide 200 µM mixed 50 µL + 50 µL with bacteria, Figure 7: 48 h; for Bacterial growth relative to medium, S. aureus, replicate 1: replicate column 1; for Bacterial growth relative to medium, S. aureus, replicate 2: replicate column 2; for Bacterial growth relative to medium, S. aureus, replicate 3: replicate column 3; for Antibacterial activity (in words): S. aureus DSM 2569, growth after 48 h
Experimental: as §1

Compound | Bacterial growth relative to medium, L. monocytogenes, replicate 1 [1] | Bacterial growth relative to medium, L. monocytogenes, replicate 2 [1] | Bacterial growth relative to medium, L. monocytogenes, replicate 3 [1] | Viability of infected cells relative to aprotinin, Replicate 1 (A/Hamburg/05/2009 (H1N1)) | Viability of infected cells relative to aprotinin, Replicate 2 (A/Hamburg/05/2009 (H1N1)) | Viability of infected cells relative to aprotinin, Replicate 3 (A/Hamburg/05/2009 (H1N1)) | Bacterial growth relative to medium, E. coli, replicate 1 [2] | Bacterial growth relative to medium, E. coli, replicate 2 [2] | Bacterial growth relative to medium, E. coli, replicate 3 [2] | Bacterial growth relative to medium, S. epidermidis, replicate 1 [3] | Bacterial growth relative to medium, S. epidermidis, replicate 2 [3] | Bacterial growth relative to medium, S. epidermidis, replicate 3 [3] | Viability of infected cells relative to aprotinin, Replicate 1 (A/Hessen/1/2003 (H3N2)) | Viability of infected cells relative to aprotinin, Replicate 2 (A/Hessen/1/2003 (H3N2)) | Bacterial growth relative to medium, P. aeruginosa (50071), replicate 1 [4] | Bacterial growth relative to medium, P. aeruginosa (50071), replicate 2 [4] | Bacterial growth relative to medium, P. aeruginosa (50071), replicate 3 [4] | Bacterial growth relative to medium, P. aeruginosa (1117), replicate 1 [5] | Bacterial growth relative to medium, P. aeruginosa (1117), replicate 2 [5] | Bacterial growth relative to medium, P. aeruginosa (1117), replicate 3 [5] | further results
CCO [EtOH, ethanol, reference compound] |  |  |  |  |  |  |  |  |  |  |  |  |  |  |  |  |  |  |  |  | Mortality (G. mellonella larvae; ethanol injected as positive control, after 5 days): up to 50%
DVVKSKVGQT [LS-AMP-A20] | 113.144 | 85.2342 | 40.8896 | 0.03404 | 0.03606 | 0.06978 | 95.2629 | 75.2606 | 50.6769 | 65.0524 | 56.0414 | 87.4721 | 0.06093 | 0.1556 | 100.814 | 110.766 | 86.151 | 78.7161 | 66.133 | 53.5452 | Viability of infected cells relative to aprotinin, Replicate 3 (A/Hessen/1/2003 (H3N2)): 0.1529; Viability of infected cells relative to aprotinin, Replicate 4 (A/Hessen/1/2003 (H3N2)): 0.1478; Antibacterial activity over the panel (in words) [6]: marginal effects against several bacteria; Viability of infected cells relative to aprotinin, Replicate 1 [7]: 0.07308; Viability of infected cells relative to aprotinin, Replicate 2 [7]: 0.07936; Viability of infected cells relative to aprotinin, Replicate 3 [7]: 0.06088; Antibacterial activity (in words) ([8]; M. luteus DSM 20030, growth after 48 h): strongest effect; Bacterial growth relative to medium, M. luteus, replicate 1 [8]: 84.9437; Bacterial growth relative to medium, M. luteus, replicate 2 [8]: 89.1892; Bacterial growth relative to medium, M. luteus, replicate 3 [8]: 58.8713; Insecticidal effect on larvae (in words) (G. mellonella larvae): Individual dead insects; Bacterial growth relative to medium, S. aureus, replicate 1 [9]: 65.5327; Bacterial growth relative to medium, S. aureus, replicate 2 [9]: 71.5501; Bacterial growth relative to medium, S. aureus, replicate 3 [9]: 85.4097
SLLGLLDVVKSKIGQT [LS-AMP-A15] | 129.232 | 92.1308 | 85.5096 | 0.04491 | 0.03692 | 0.03514 | 103.062 | 89.9768 | 48.0425 | 84.6766 | 83.7361 | 92.3812 | 0.1635 | 0.1644 | 101.444 | 115.913 | 84.6093 | 80.9004 | 77.0275 | 69.3765 | Antibacterial activity (in words) [3]: limited activity; Viability of infected cells relative to aprotinin, Replicate 3 (A/Hessen/1/2003 (H3N2)): 0.1569; Viability of infected cells relative to aprotinin, Replicate 4 (A/Hessen/1/2003 (H3N2)): 0.1576; Viability of infected cells relative to aprotinin, Replicate 1 [7]: 0.05034; Viability of infected cells relative to aprotinin, Replicate 2 [7]: 0.05082; Viability of infected cells relative to aprotinin, Replicate 3 [7]: 0.05878; Bacterial growth relative to medium, M. luteus, replicate 1 [8]: 87.1981; Bacterial growth relative to medium, M. luteus, replicate 2 [8]: 100.338; Bacterial growth relative to medium, M. luteus, replicate 3 [8]: 54.7585; Insecticidal effect on larvae (in words) (G. mellonella larvae): Individual dead insects; Bacterial growth relative to medium, S. aureus, replicate 1 [9]: 62.2914; Bacterial growth relative to medium, S. aureus, replicate 2 [9]: 63.5709; Bacterial growth relative to medium, S. aureus, replicate 3 [9]: 94.1265; Antibacterial activity (in words) [9]: limited activity
SLLGLLDVVKSKIGQTGLL [LS-AMP-A13] | 131.861 | 134.66 | 121.808 | 0.06606 | 0.03634 | 0.07331 | 109.532 | 109.096 | 112.001 | 109.035 | 130.725 | 108.734 | 0.1762 | 0.09602 | 102.39 | 115.883 | 93.6736 | 81.1135 | 69.8921 | 76.1614 | Antibacterial activity (in words) [3]: limited activity; Viability of infected cells relative to aprotinin, Replicate 3 (A/Hessen/1/2003 (H3N2)): 0.1319; Viability of infected cells relative to aprotinin, Replicate 1 [7]: 0.08268; Viability of infected cells relative to aprotinin, Replicate 2 [7]: 0.06182; Viability of infected cells relative to aprotinin, Replicate 3 [7]: 0.0661; Bacterial growth relative to medium, M. luteus, replicate 1 [8]: 108.132; Bacterial growth relative to medium, M. luteus, replicate 2 [8]: 162.387; Bacterial growth relative to medium, M. luteus, replicate 3 [8]: 79.7227; Insecticidal effect on larvae (in words) (G. mellonella larvae): Individual dead insects; Bacterial growth relative to medium, S. aureus, replicate 1 [9]: 71.9833; Bacterial growth relative to medium, S. aureus, replicate 2 [9]: 81.2949; Bacterial growth relative to medium, S. aureus, replicate 3 [9]: 106.322; Antibacterial activity (in words) [9]: limited activity
SLLGLLDVVKSKVGQTGLL [LS-AMP-A18] | 145.215 | 105.128 | 13.7733 | 0.03159 | 0.03911 | 0.01637 | 110.572 | 96.6395 | 68.0936 | 95.0126 | 84.2348 | 89.1297 | 0.1207 | 0.1378 | 102.836 | 105.708 | 87.0813 | 87.8796 | 68.3606 | 68.2151 | Antibacterial activity over the panel (in words) [6]: largely inactive; Viability of infected cells relative to aprotinin, Replicate 1 [7]: 0.06546; Viability of infected cells relative to aprotinin, Replicate 2 [7]: 0.04295; Viability of infected cells relative to aprotinin, Replicate 3 [7]: 0.0512; Bacterial growth relative to medium, M. luteus, replicate 1 [8]: 143.237; Bacterial growth relative to medium, M. luteus, replicate 2 [8]: 115.766; Bacterial growth relative to medium, M. luteus, replicate 3 [8]: 65.7102; Bacterial growth relative to medium, S. aureus, replicate 1 [9]: 75; Bacterial growth relative to medium, S. aureus, replicate 2 [9]: 66.2525; Bacterial growth relative to medium, S. aureus, replicate 3 [9]: 80.9203

— PMC10221074, “Functional Profiling of the A-Family of Venom Peptides from the Wolf Spider Lycosa shansia” (Toxins, 2023)
